Reference: patent US20220242846A1, “ISOINDOLINONE COMPOUNDS” (Monte Rosa Therapeutics AG, priority 2019, published 2022)
pEC50, pIC50: −log10 of the molar value.

What follows are compounds tested against T1, Full length wild-type cereblon CRBN (Homo sapiens, UniProt Q96SW2) (assay: Fluorescence polarization (FP) assay indicating cereblon binding). Details: CRBN 80.0 nM, fluorescent probe 5 nM, FP measured after 12 hours; read-out: rFP IC50.
T1 construct: Full length wild-type cereblon CRBN (80.0 nM, 10 μL) was incubated in assay buffer
T1 sequence (Q96SW2 whole entry): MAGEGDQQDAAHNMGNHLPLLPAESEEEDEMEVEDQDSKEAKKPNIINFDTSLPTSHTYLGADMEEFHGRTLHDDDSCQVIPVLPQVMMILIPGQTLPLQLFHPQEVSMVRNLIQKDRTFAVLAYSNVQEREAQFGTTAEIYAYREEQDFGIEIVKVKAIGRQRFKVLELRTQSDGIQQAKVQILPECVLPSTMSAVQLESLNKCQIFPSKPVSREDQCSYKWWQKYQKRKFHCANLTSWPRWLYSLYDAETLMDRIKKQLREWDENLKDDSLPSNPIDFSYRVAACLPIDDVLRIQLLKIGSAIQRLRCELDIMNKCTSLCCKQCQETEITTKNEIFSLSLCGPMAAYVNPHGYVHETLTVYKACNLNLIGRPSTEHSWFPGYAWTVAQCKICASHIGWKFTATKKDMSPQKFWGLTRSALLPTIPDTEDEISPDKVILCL
Excerpt: Protocol for Fluorescent Polarization Assay
Compound activity was monitored in a fluorescence polarization (FP) homogeneous assay using 1-[5-({2-[2-(2-{[2-(2,6-dioxopiperidin-3-yl)-1,3-dioxo-2,3-dihydro-1H-isoindol-4-yl]oxy}acetamido)ethoxy]ethyl}carbamoyl)pentyl]-3,3-dimethyl-2-[(1E,3E)-5-[(2E)-1,3,3-trimethyl-5-sulfo-2,3-dihydro-1H-indol-2-ylidene]penta-1,3-dien-1-yl]-3H-indol-1-ium-5-sulfonate as a fluorescent probe. Unless otherwise stated, all reagents were purchased from Sigma Aldrich. Enzymatic reactions were conducted in Perkin-Elmer Black 384 well ProxiPlate Plus (catalogue no. 6008269) in 10 μL total volume. Full length wild-type cereblon CRBN (80.0 nM, 10 μL) was incubated in assay buffer containing 20 mM HEPES (pH 8.0), […], 0.5 mM TCEP and 0.05% Tween 20 in the presence or absence of compound (300 nL). Inhibitors were stored as 10 mM DMSO stocks in an inert environment (low humidity, dark, low oxygen, room temperature) using the Storage Pod System. Compounds and DMSO were dispensed using the Echo E5XX (Labcyte Inc. USA) to give concentrations from 300 to 0.937 or 3000 to 9.3 nM in a 12 data point curve. […] Following incubation at room temperature for […], the assay was initiated by dispensing the probe to a final concentration of 5 nM (2.5 nL of a 20 μM stock) using the Echo E5XX. FP was measured after a period of 12 hours using a Pherastar plate reader (BMG Labtech, Germany) exciting at 590 nm and measuring the amount of parallel and perpendicular light at 675 nm. The FP signal was subsequently normalized to the no-compound control (i.e., DMSO). Analysis and IC50 values were derived using Dotmatics (Dotmatics UK) software.

O=C1CCC(N2Cc3ccc(CNC(=O)Nc4ccccc4-c4ccccc4)cc3C2=O)C(=O)N1 (stereo not shown) [Compound 66] and CCOc1ccccc1NC(=O)NCc1ccc2c(c1)C(=O)N(C1CCC(=O)NC1=O)C2 (stereo not shown) [Compound 22] are within 0.2 log units of each other in pIC50: 6.35 for the first, 6.41 for the second.

CCc1cccc(NC(=O)NCc2ccc3c(c2)C(=O)N(C2CCC(=O)NC2=O)C3)c1 (stereo not shown) [Compound 31] and CCOc1ccc(NC(=O)NCc2ccc3c(c2)C(=O)N(C2CCC(=O)NC2=O)C3)cc1 (stereo not shown) [Compound 16] are within 0.2 log units of each other in pIC50: 6.23 for the first, 6.09 for the second.

Compared with O=C1CCC(N2Cc3ccc(CNC(=O)Nc4ccc(F)c(F)c4)cc3C2=O)C(=O)N1 (stereo not shown) [Compound 39], O=C1CCC(N2Cc3ccc(CNC(=O)Nc4ccc(Cl)c(Cl)c4)cc3C2=O)C(=O)N1 (stereo not shown) [Compound 46] is 0.38 log units lower in pIC50: 6.23 for the first, 5.85 for the second.

Going from Cc1cc(Cl)c(NC(=O)NCc2ccc3c(c2)C(=O)N(C2CCC(=O)NC2=O)C3)cc1Cl (stereo not shown) [Compound 78] to Cc1c(Cl)cc(NC(=O)NCc2ccc3c(c2)C(=O)N(C2CCC(=O)NC2=O)C3)cc1N(C)C (stereo not shown) [Compound 129], the pIC50 rises from 6.14 to 6.46 (0.32 log units).

Going from O=C1CCC(N2Cc3ccc(CNC(=O)Nc4ccc(OC(F)(F)F)cc4)cc3C2=O)C(=O)N1 (stereo not shown) [Compound 77] to O=C1CCC(N2Cc3ccc(CNC(=O)Nc4cc(C(F)(F)F)ns4)cc3C2=O)C(=O)N1 (stereo not shown) [Compound 149], the pIC50 falls from 6.24 to 5.95 (0.29 log units).

Cc1cc(NC(=O)NCc2ccc3c(c2)C(=O)N(C2CCC(=O)NC2=O)C3)sn1 (stereo not shown) [Compound 146] and Cn1ccc(NC(=O)NCc2ccc3c(c2)C(=O)N(C2CCC(=O)NC2=O)C3)c1 (stereo not shown) [Compound 128] are within 0.2 log units of each other in pIC50: 6.47 for the first, 6.52 for the second.

These compounds were tested on Human mammary epithelial cells (HMEC) engineered to express c-myc tagged with EGFP (assay: 3D spheroid assay, myc-HMEC (CellTiterGlo3D viability)). Details: Homo sapiens, HMEC, 120 h, 3D spheroids, 5 days with compound, read-out: Code: EC50 value in the myc-HMEC assay.
Format: cell-based
Method: (§1) 3D Spheroid Experiments—HMEC
(§2) Human mammary epithelial cells (HMEC) were engineered to express either c-myc tagged with EGFP or EGFP alone (non myc) (analogous but distinct from Kessler J D et al, Science. 2012 Jan. 20; 335(6066):348-53. doi: 10.1126/science.1212728; Hsu T Y et al, Nature. 2015 Sep. 17; 525(7569):384-8. doi: 10.1038/nature14985). The engineered cells were seeded at 1000 (myc) or 4000 (non myc) cells/well in a 384 ultra-low attachment plate in a total volume of 40 µL, HMEC cell culture media (DMEM/F12+10% HI-FBS+15 mM HEPES+0.5 ug/ml Hydrocortisone+10 ug/ml Insulin+20 ng/ml EGF). Plates were spun at 1200 rpm for 5 minutes at room temperature to ensure that cells have gathered in the middle of the well and incubated at 37° C. for 48 hrs before firing with compounds. On Day 2 (48 h post seeding) cells were imaged (brightfield and EGFP fluorescence) using the Celigo imaging cytometer prior to firing compounds. For primary screens, compounds were added at three concentrations (1.25, 10 and 30 uM) in a volume of 120 nL using the ECHO acoustic dispenser and spun at 2000 rpm for 2 minutes at room temperature before incubating at 37° C. for 5 days. […] On Day 7, prior to measuring cell viability using CellTiterGlo3D, cells were imaged (brightfield and EGFP fluorescence) on the Celigo imaging cytometer. The CellTiterGlo3D reagent is added at 30uL/well and incubated at room temperature for 30mins After 30mins of incubation, luminescence readings were recorded using the Perkin Elmer EnVision reader.

O=C1CCC(N2Cc3ccc(CNC(=O)Nc4ccccc4-c4ccccc4)cc3C2=O)C(=O)N1 (stereo not shown) [Compound 66] and CCOc1ccccc1NC(=O)NCc1ccc2c(c1)C(=O)N(C1CCC(=O)NC1=O)C2 (stereo not shown) [Compound 22] cannot be ordered by pEC50: < 5.70 for the first, < 5.70 for the second.

First: CCc1cccc(NC(=O)NCc2ccc3c(c2)C(=O)N(C2CCC(=O)NC2=O)C3)c1 (stereo not shown) [Compound 31]
Second: CCOc1ccc(NC(=O)NCc2ccc3c(c2)C(=O)N(C2CCC(=O)NC2=O)C3)cc1 (stereo not shown) [Compound 16]
The pEC50 of the first is higher: 5.70 to 6.40 for the first, < 5.70 for the second.

First: O=C1CCC(N2Cc3ccc(CNC(=O)Nc4ccc(F)c(F)c4)cc3C2=O)C(=O)N1 (stereo not shown) [Compound 39]
Second: O=C1CCC(N2Cc3ccc(CNC(=O)Nc4ccc(Cl)c(Cl)c4)cc3C2=O)C(=O)N1 (stereo not shown) [Compound 46]
The pEC50 of the first is lower: < 5.70 for the first, 5.70 to 6.40 for the second. The second is the more potent here.

Same assay, conditions: myc-HMEC 3D spheroids (compounds with code D and E), 5 days, read-out: EC50

CCc1cccc(NC(=O)NCc2ccc3c(c2)C(=O)N(C2CCC(=O)NC2=O)C3)c1 (stereo not shown) [Compound 31] and O=C1CCC(N2Cc3ccc(CNC(=O)Nc4ccc(Cl)c(Cl)c4)cc3C2=O)C(=O)N1 (stereo not shown) [Compound 46] are within 0.2 log units of each other in pEC50: 6.34 for the first, 6.33 for the second.

The compounds below were run on Human mammary epithelial cells (HMEC) engineered to express EGFP alone (non myc) (assay: 3D spheroid assay, non myc-HMEC (CellTiterGlo3D viability)). Details: 120 h, 3D spheroids, 5 days with compound, read-out: Code: EC50 value in the non myc-HMEC assay.
Format: cell-based
Method: as §1, §2

O=C1CCC(N2Cc3ccc(CNC(=O)Nc4ccccc4-c4ccccc4)cc3C2=O)C(=O)N1 (stereo not shown) [Compound 66] and CCOc1ccccc1NC(=O)NCc1ccc2c(c1)C(=O)N(C1CCC(=O)NC1=O)C2 (stereo not shown) [Compound 22] cannot be ordered by pEC50: < 5.00 for the first, < 5.00 for the second.

CCc1cccc(NC(=O)NCc2ccc3c(c2)C(=O)N(C2CCC(=O)NC2=O)C3)c1 (stereo not shown) [Compound 31] and CCOc1ccc(NC(=O)NCc2ccc3c(c2)C(=O)N(C2CCC(=O)NC2=O)C3)cc1 (stereo not shown) [Compound 16] cannot be ordered by pEC50: < 5.00 for the first, < 5.00 for the second.

O=C1CCC(N2Cc3ccc(CNC(=O)Nc4ccc(F)c(F)c4)cc3C2=O)C(=O)N1 (stereo not shown) [Compound 39] and O=C1CCC(N2Cc3ccc(CNC(=O)Nc4ccc(Cl)c(Cl)c4)cc3C2=O)C(=O)N1 (stereo not shown) [Compound 46] cannot be ordered by pEC50: < 5.00 for the first, < 5.00 for the second.

Cc1cc(Cl)c(NC(=O)NCc2ccc3c(c2)C(=O)N(C2CCC(=O)NC2=O)C3)cc1Cl (stereo not shown) [Compound 78] and O=C1CCC(N2Cc3ccc(CNC(=O)Nc4ccc(OC(F)(F)F)cc4)cc3C2=O)C(=O)N1 (stereo not shown) [Compound 77] cannot be ordered by pEC50: < 5.00 for the first, < 5.00 for the second.

Each compound was assayed against GSPT1 (Homo sapiens, UniProt P15170+Q96SW2) (assay: Immunofluorescence assay for GSPT1 degradation in CAL-51 cells). Details: compound treatment 6 hours, read-out: Code: activity for GSPT1 degradation (DC50).
GSPT1, sequence (P15170 whole entry): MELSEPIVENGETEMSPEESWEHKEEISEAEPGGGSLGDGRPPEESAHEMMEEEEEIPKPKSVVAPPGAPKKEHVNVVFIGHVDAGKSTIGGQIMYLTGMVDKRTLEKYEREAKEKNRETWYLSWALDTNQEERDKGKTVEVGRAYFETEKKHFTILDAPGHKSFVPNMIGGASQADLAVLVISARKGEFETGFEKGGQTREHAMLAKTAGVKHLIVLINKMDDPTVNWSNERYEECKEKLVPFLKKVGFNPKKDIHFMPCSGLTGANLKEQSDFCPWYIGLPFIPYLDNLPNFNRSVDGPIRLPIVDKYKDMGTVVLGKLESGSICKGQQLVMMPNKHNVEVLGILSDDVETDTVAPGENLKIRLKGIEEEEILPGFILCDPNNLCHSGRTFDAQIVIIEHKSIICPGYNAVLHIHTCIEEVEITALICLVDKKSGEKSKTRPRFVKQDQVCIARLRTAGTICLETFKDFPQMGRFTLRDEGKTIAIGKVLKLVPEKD
GSPT1, sequence (Q96SW2 whole entry): as the sequence (Q96SW2 whole entry) above
GSPT1, sequence (Q16531 2-1140 partner limits assumed): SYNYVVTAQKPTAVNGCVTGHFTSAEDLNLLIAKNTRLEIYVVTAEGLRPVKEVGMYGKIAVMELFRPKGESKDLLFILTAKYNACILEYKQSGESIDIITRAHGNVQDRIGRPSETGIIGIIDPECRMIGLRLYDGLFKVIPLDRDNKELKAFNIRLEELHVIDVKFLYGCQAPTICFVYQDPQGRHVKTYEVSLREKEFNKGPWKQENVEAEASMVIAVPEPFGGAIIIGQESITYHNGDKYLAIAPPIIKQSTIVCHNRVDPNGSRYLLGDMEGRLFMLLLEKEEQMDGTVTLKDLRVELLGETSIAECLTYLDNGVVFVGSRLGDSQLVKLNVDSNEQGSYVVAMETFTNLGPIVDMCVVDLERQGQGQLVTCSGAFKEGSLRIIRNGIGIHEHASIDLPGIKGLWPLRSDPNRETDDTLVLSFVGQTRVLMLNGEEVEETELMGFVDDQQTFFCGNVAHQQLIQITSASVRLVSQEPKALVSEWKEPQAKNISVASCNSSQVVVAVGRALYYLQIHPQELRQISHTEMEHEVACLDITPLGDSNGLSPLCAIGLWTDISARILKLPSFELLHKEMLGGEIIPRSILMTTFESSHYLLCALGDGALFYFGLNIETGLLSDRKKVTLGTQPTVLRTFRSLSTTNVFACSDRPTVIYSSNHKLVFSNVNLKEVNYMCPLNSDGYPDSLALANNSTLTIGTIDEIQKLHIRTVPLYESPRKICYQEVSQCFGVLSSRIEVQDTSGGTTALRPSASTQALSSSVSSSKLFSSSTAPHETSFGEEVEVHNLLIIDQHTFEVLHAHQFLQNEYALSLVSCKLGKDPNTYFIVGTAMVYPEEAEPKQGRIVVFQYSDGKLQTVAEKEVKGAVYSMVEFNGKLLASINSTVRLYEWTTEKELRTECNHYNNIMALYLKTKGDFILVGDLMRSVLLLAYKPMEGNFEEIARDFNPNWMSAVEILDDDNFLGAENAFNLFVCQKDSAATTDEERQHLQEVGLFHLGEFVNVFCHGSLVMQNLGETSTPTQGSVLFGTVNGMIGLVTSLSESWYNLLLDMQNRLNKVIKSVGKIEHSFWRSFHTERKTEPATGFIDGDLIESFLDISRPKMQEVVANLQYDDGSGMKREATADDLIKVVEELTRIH
Format: cell-based
Design: CAL-51 cells were purchased from DSMZ (cat. Number ACC302); endogenous in cells; host or cells: CAL-51 (DSMZ ACC302)
Method: CAL-51 cells were purchased from DSMZ (cat. Number ACC302), sub-cultured in 90% Dulbecco's MEM (4.5 g/L glucose, Gibco 11965) +10% heat inactivated FBS (BioConcept, 2-01F136I) and incubated at 37° C., 5% CO2. For the assay, imaging microtiterplate Cell Carrier 96 Ultra (Perkin Elmer 6055302) were pre-coated with Fibronectin (Sigma F085, 300 at 0.2 μg/ml) in PBS (1000, Gibco 14190) for 45 min at room temperature, rinsed with PBS and CAL-51 cells (30K cells/well) were plated and let to adhere overnight. Cells were treated with compounds typically using a serial dilution ranging from 30 μM to 0.1 nM for 6 hours. Compounds were stored at 10 mM DMSO stocks. Vehicle (DMSO), positive (CC-885, 10 μM) and rescue controls (positive control plus 0.2 μM bortezomib) were also included at this stage. Cells were subsequently rinsed with PBS and fixed in 10% Formalin solution (50 μl, Sigma HT5011)) for 20 mins at room temperature. Following three consecutive PBS washes (100 μl), cells were permeabilized in 0.1% Triton X-100 in PBS (Sigma 93443, 50 μl) for 15 mins at room temperature. Following three further PBS washes, 50 μl blocking buffer (1% BSA, Sigma A4503, in PBS) was added for 45 min for signal-to-noise reduction. Primary antibody (human GSPT1, Sigma HPA052488) was diluted in blocking buffer (dil. 1/300, 35 μl/well) and incubated with the cells overnight at 4° C. After three PBS washes, Alexa-fluor 488 coupled secondary antibodies (Invitrogen, A32731, dil. 1/1000), Alexa-fluor 647-Phalloïdin (Invitrogen, A22287, dil. 1/200) and DAPI (Thermo, #62248, dil.1/1000) were diluted in blocking buffer and incubated with the samples for 2 hours at room temperature. After three final PBS washes, samples were conserved in 1000 PBS in the dark, until measurement. Image acquisition was performed on the Operetta High-Content Imager (Perkin-Elmer). Fluorescence intensity of Alexa-Fluor 488 (GSPT1), Alexa-Fluor 647 (Actin) and DAPI (Nucleus) were measured. For the determination of GSPT1 DC50 values, a custom algorithm implemented in the PerkinElmer image analysis software Harmony-Acapella® was developed. After user-defined setting of adjustment parameters, the analysis was run identically without human intervention for all image fields. DAPI staining of the nuclei was used to determine the location of cells using standard nuclei detection modules. Segmentation artifacts were removed by threshold-based filters for area, roundness and intensity. The outline of the cells was determined analogously from the sum of the normalized, smoothed DAPI and Actin channel, starting from each nucleus. The Alexa-Fluor 488 (GSPT1) signal intensity in each cell was finally measured, in order to obtain a Mean intensity per cell. GSPT1 degradation (DC50) was calculated after normalization to controls and data import in CDD vault Database, using non-linear regression. Activity for GSPT1 Degradation Table 3 assigns each compound a code indicating the ability for GSPT1 degradation: A, B or C. According to the code, A represents a DC50 value of ≤100 nM, B represents a DC50 value >100 nM and ≤300 nM and C represents a DC50 value of >300 nM.

O=C1CCC(N2Cc3ccc(CNC(=O)Nc4ccccc4-c4ccccc4)cc3C2=O)C(=O)N1 (stereo not shown) [Compound 66] and CCOc1ccccc1NC(=O)NCc1ccc2c(c1)C(=O)N(C1CCC(=O)NC1=O)C2 (stereo not shown) [Compound 22] cannot be ordered by DC50: > 300 nM for the first, > 300 nM for the second.

Compared with CCc1cccc(NC(=O)NCc2ccc3c(c2)C(=O)N(C2CCC(=O)NC2=O)C3)c1 (stereo not shown) [Compound 31], CCOc1ccc(NC(=O)NCc2ccc3c(c2)C(=O)N(C2CCC(=O)NC2=O)C3)cc1 (stereo not shown) [Compound 16] is higher in DC50: 100 to 300 nM for the first, > 300 nM for the second.

Going from O=C1CCC(N2Cc3ccc(CNC(=O)Nc4ccc(F)c(F)c4)cc3C2=O)C(=O)N1 (stereo not shown) [Compound 39] to O=C1CCC(N2Cc3ccc(CNC(=O)Nc4ccc(Cl)c(Cl)c4)cc3C2=O)C(=O)N1 (stereo not shown) [Compound 46], the DC50 falls from > 300 nM to ≤ 100 nM.

Cc1cc(Cl)c(NC(=O)NCc2ccc3c(c2)C(=O)N(C2CCC(=O)NC2=O)C3)cc1Cl (stereo not shown) [Compound 78] and Cc1c(Cl)cc(NC(=O)NCc2ccc3c(c2)C(=O)N(C2CCC(=O)NC2=O)C3)cc1N(C)C (stereo not shown) [Compound 129] cannot be ordered by DC50: ≤ 100 nM for the first, ≤ 100 nM for the second.

Compared with O=C1CCC(N2Cc3ccc(CNC(=O)Nc4ccc(OC(F)(F)F)cc4)cc3C2=O)C(=O)N1 (stereo not shown) [Compound 77], O=C1CCC(N2Cc3ccc(CNC(=O)Nc4cc(C(F)(F)F)ns4)cc3C2=O)C(=O)N1 (stereo not shown) [Compound 149] is higher in DC50: ≤ 100 nM for the first, > 300 nM for the second.

Cc1cc(NC(=O)NCc2ccc3c(c2)C(=O)N(C2CCC(=O)NC2=O)C3)sn1 (stereo not shown) [Compound 146] and Cn1ccc(NC(=O)NCc2ccc3c(c2)C(=O)N(C2CCC(=O)NC2=O)C3)c1 (stereo not shown) [Compound 128] cannot be ordered by DC50: > 300 nM for the first, > 300 nM for the second.
